In ChEMBL document CHEMBL6096719, “Kidney Targeting Smart Antibiotic Discovery: Multimechanism Pleuromutilins for Pyelonephritis Therapy” (J Med Chem, 2025):
In brackets after ≈: the same amount, converted by molar mass.

How the values were obtained:
[1] = Aqueous solubility of the compound incubated for 12 hrs by UV-Vis spectrophotometry; assay type: physicochemical; settings: buffer
[2] = Cytotoxicity against human HEK293 cells assessed as reduction in cell viability incubated for 24 hrs by CCK8 assay; assay type: toxicity, cell-based
Acinetobacter baumannii [3] = test: Antibacterial activity against carbapenem-resistant Acinetobacter baumannii 882 assessed as inhibition of bacterial growth incubated for 24 hrs by broth microdilution method; assay type: functional
Pseudomonas aeruginosa = test: Antibacterial activity against multidrug-resistant Pseudomonas aeruginosa 126 assessed as inhibition of bacterial growth incubated for 24 hrs by broth microdilution method; assay type: functional
Staphylococcus aureus [4] = test: Antibacterial activity against methicillin-resistant Staphylococcus aureus 206 assessed as inhibition of bacterial growth incubated for 24 hrs by broth microdilution method; assay type: functional
Staphylococcus aureus [5] = test: Antibacterial activity against methicillin-resistant Staphylococcus aureus 596 assessed as inhibition of bacterial growth incubated for 24 hrs by broth microdilution method; assay type: functional
Staphylococcus aureus [6] = test: Antibacterial activity against methicillin-resistant Staphylococcus aureus 575 assessed as inhibition of bacterial growth incubated for 24 hrs by broth microdilution method; assay type: functional
Staphylococcus aureus [7] = test: Antibacterial activity against methicillin-resistant Staphylococcus aureus 222 assessed as inhibition of bacterial growth incubated for 24 hrs by broth microdilution method; assay type: functional
Staphylococcus aureus [8] = test: Antibacterial activity against methicillin-resistant Staphylococcus aureus 171 assessed as inhibition of bacterial growth incubated for 24 hrs by broth microdilution method; assay type: functional
[9] = Cytotoxicity against human HepG2 cells assessed as reduction in cell viability incubated for 24 hrs by CCK8 assay; assay type: toxicity, cell-based
Enterococcus = test: Antibacterial activity against vancomycin-resistant Enterococcus 80 assessed as inhibition of bacterial growth incubated for 24 hrs by broth microdilution method; assay type: functional
Klebsiella pneumoniae = test: Antibacterial activity against multidrug-resistant Klebsiella pneumoniae 893 assessed as inhibition of bacterial growth incubated for 24 hrs by broth microdilution method; assay type: functional
[10] = Cytotoxicity against human A549 cells assessed as reduction in cell viability incubated for 24 hrs by CCK8 assay; assay type: toxicity, cell-based
Staphylococcus aureus [11] = test: Antibacterial activity against Staphylococcus aureus ATCC 29213 assessed as inhibition of bacterial growth incubated for 24 hrs by broth microdilution method; assay type: functional
Staphylococcus aureus [12] = test: Antibacterial activity against methicillin-resistant Staphylococcus aureus ATCC 33591 assessed as inhibition of bacterial growth incubated for 24 hrs by broth microdilution method; assay type: functional
Salmonella enterica = test: Antibacterial activity against Salmonella enterica ATCC 14028 assessed as inhibition of bacterial growth incubated for 24 hrs by broth microdilution method; assay type: functional
Escherichia coli [13] = test: Antibacterial activity against Escherichia coli ATCC 25922 assessed as inhibition of bacterial growth incubated for 24 hrs by broth microdilution method; assay type: functional
[14] = test system: Staphylococcus epidermidis; test: Antibacterial activity against methicillin-resistant Staphylococcus epidermidis ATCC 51625 assessed as inhibition of bacterial growth incubated for 24 hrs by broth microdilution method; assay type: functional
Acinetobacter baumannii [15] = test: Antibacterial activity against Acinetobacter baumannii ATCC 19606 assessed as inhibition of bacterial growth incubated for 24 hrs by broth microdilution method; assay type: functional
Escherichia coli [16] = test: Antibacterial activity against Escherichia coli CMCC 44103 assessed as inhibition of bacterial growth incubated for 24 hrs by broth microdilution method; assay type: functional
Staphylococcus aureus [17] = test: Antibacterial activity against methicillin-resistant Staphylococcus aureus ATCC 43300 assessed as inhibition of bacterial growth incubated for 24 hrs by broth microdilution method; assay type: functional

With `C=C[C@]1(C)C[C@@H](OC(=O)CSc2nc3cc[n+](Cc4ccc(Br)cc4)cc3[nH]2)[C@]2(C)[C@H](C)CC[C@]3(CCC(=O)[C@H]32)[C@@H](C)[C@@H]1O.[Br-]` as the molecule, how does the solubility at 12 h [1] read?
Its solubility at 12 h is 432 µg/mL.

For `C=C[C@]1(C)C[C@@H](OC(=O)CSc2nc3cc[n+](Cc4ccc(F)cc4)cc3[nH]2)[C@]2(C)[C@H](C)CC[C@]3(CCC(=O)[C@H]32)[C@@H](C)[C@@H]1O.[Br-]`, which solubility at 12 h [1] is on record?
Its solubility at 12 h is 159 µg/mL.

With `C=C[C@]1(C)C[C@@H](OC(=O)CSc2nc3cc[n+](Cc4cc(OC)cc(OC)c4)cc3[nH]2)[C@]2(C)[C@H](C)CC[C@]3(CCC(=O)[C@H]32)[C@@H](C)[C@@H]1O.[Br-]` as the molecule, how does the solubility at 12 h [1] read?
Its solubility at 12 h is 176 µg/mL.

With `C=C[C@]1(C)C[C@@H](OC(=O)CSc2nc3cc[n+](Cc4ccc(C)cc4)cc3s2)[C@]2(C)[C@H](C)CC[C@]3(CCC(=O)[C@H]32)[C@@H](C)[C@@H]1O.[Br-]` as the molecule, how does the CC50 at 24 h [2] read?
Its CC50 at 24 h is 82.1 µM.

What about the MIC (Acinetobacter baumannii [3]) of the same molecule?
The MIC was 4 µg/mL.

What about the MIC (Pseudomonas aeruginosa) of the same molecule?
The MIC was 8 µg/mL.

And the MIC (Staphylococcus aureus [4])?
Its MIC is 2 µg/mL.

And the solubility at 12 h [1]?
Its solubility at 12 h is 568 µg/mL.

And the MIC (Staphylococcus aureus [5])?
The MIC was 8 µg/mL.

And the MIC (Staphylococcus aureus [6])?
The MIC was 4 µg/mL.

What about the MIC (Staphylococcus aureus [7]) of the same molecule?
The MIC was 4 µg/mL.

What about the MIC (Staphylococcus aureus [8]) of the same molecule?
The MIC was 8 µg/mL.

And the CC50 at 24 h [9]?
The CC50 at 24 h was 46.4 µM.

And the MIC (Enterococcus)?
The MIC was 8 µg/mL.

What about the MIC (Klebsiella pneumoniae) of the same molecule?
Its MIC is 2 µg/mL.

What about the CC50 at 24 h [10] of the same molecule?
The CC50 at 24 h was greater than 100 µM.

With `C=C[C@]1(C)C[C@@H](OC(=O)CSCCN(CC)CC)[C@]2(C)[C@H](C)CC[C@]3(CCC(=O)[C@H]32)[C@@H](C)[C@@H]1O` [TIAMULIN] as the molecule, how does the solubility at 12 h [1] read?
The solubility at 12 h was 128 µg/mL (≈ 259 µM).

With `C=C[C@]1(C)C[C@@H](OC(=O)CSc2nc3cc[n+](Cc4ccc(-c5ccccc5)cc4)cc3s2)[C@]2(C)[C@H](C)CC[C@]3(CCC(=O)[C@H]32)[C@@H](C)[C@@H]1O.[Br-]` as the molecule, how does the solubility at 12 h [1] read?
Its solubility at 12 h is 391 µg/mL.

Which solubility at 12 h [1] does the source give for `C=C[C@]1(C)C[C@@H](OC(=O)CSc2nc3cc[n+](Cc4cc(OC)cc(OC)c4)cc3s2)[C@]2(C)[C@H](C)CC[C@]3(CCC(=O)[C@H]32)[C@@H](C)[C@@H]1O.[Br-]` here?
The solubility at 12 h was 94 µg/mL.

Which solubility at 12 h [1] does the source give for `C=C[C@]1(C)C[C@@H](OC(=O)CSc2nc3cc[n+](Cc4cc(C)cc(C)c4)cc3s2)[C@]2(C)[C@H](C)CC[C@]3(CCC(=O)[C@H]32)[C@@H](C)[C@@H]1O.[Br-]` here?
Its solubility at 12 h is 392 µg/mL.

Which solubility at 12 h [1] does the source give for `C=C[C@]1(C)C[C@@H](OC(=O)CSc2nc3cc[n+](Cc4ccc(C(C)(C)C)cc4)cc3s2)[C@]2(C)[C@H](C)CC[C@]3(CCC(=O)[C@H]32)[C@@H](C)[C@@H]1O.[Br-]` here?
The solubility at 12 h was 453 µg/mL.

Which results are given for `C=C[C@]1(C)C[C@@H](OC(=O)CSc2nc3cc[n+](Cc4ccc(C#N)cc4)cc3s2)[C@]2(C)[C@H](C)CC[C@]3(CCC(=O)[C@H]32)[C@@H](C)[C@@H]1O.[Br-]`?
CC50 at 24 h [2]: 18.2 µM; MIC (Acinetobacter baumannii [3]): 64 µg/mL; MIC (Pseudomonas aeruginosa): 32 µg/mL; MIC (Staphylococcus aureus [4]): 64 µg/mL; solubility at 12 h [1]: 451 µg/mL; MIC (Staphylococcus aureus [5]): 8 µg/mL; MIC (Staphylococcus aureus [6]): 32 µg/mL; MIC (Staphylococcus aureus [7]): 16 µg/mL; MIC (Staphylococcus aureus [11]): < 2 µg/mL; MIC (Staphylococcus aureus [12]): < 2 µg/mL; MIC (Staphylococcus aureus [8]): 16 µg/mL; MIC (Salmonella enterica): < 2 µg/mL; CC50 at 24 h [9]: 78.5 µM; MIC (Escherichia coli [13]): < 2 µg/mL; MIC [14]: < 2 µg/mL; MIC (Acinetobacter baumannii [15]): < 2 µg/mL; MIC (Enterococcus): 16 µg/mL; MIC (Klebsiella pneumoniae): 16 µg/mL; MIC (Escherichia coli [16]): < 2 µg/mL; CC50 at 24 h [10]: > 100 µM; MIC (Staphylococcus aureus [17]): < 2 µg/mL

Which solubility at 12 h [1] does the source give for `C=C[C@]1(C)C[C@@H](OC(=O)CSc2nc3cc[n+](Cc4cc(C)cc(C)c4)cc3[nH]2)[C@]2(C)[C@H](C)CC[C@]3(CCC(=O)[C@H]32)[C@@H](C)[C@@H]1O.[Br-]` here?
The solubility at 12 h was 414 µg/mL.

Which solubility at 12 h [1] does the source give for `C=C[C@]1(C)C[C@@H](OC(=O)CSc2nc3cc[n+](Cc4ccc(Cl)cc4)cc3[nH]2)[C@]2(C)[C@H](C)CC[C@]3(CCC(=O)[C@H]32)[C@@H](C)[C@@H]1O.[Br-]` here?
Its solubility at 12 h is 419 µg/mL.

With `C=C[C@]1(C)C[C@@H](OC(=O)CSc2nc3cc[n+](Cc4ccc(Br)cc4)cc3s2)[C@]2(C)[C@H](C)CC[C@]3(CCC(=O)[C@H]32)[C@@H](C)[C@@H]1O.[Br-]` as the molecule, how does the solubility at 12 h [1] read?
The solubility at 12 h was 344 µg/mL.

Which solubility at 12 h [1] does the source give for `C=C[C@]1(C)C[C@@H](OC(=O)CSc2nc3cc[n+](Cc4ccc(OC)cc4)cc3[nH]2)[C@]2(C)[C@H](C)CC[C@]3(CCC(=O)[C@H]32)[C@@H](C)[C@@H]1O.[Br-]` here?
The solubility at 12 h was 150 µg/mL.

Which solubility at 12 h [1] does the source give for `Br.C=C[C@]1(C)C[C@@H](OC(=O)CSc2nc3cc[n+](Cc4ccc([N+](=O)[O-])cc4)cc3s2)[C@]2(C)[C@H](C)CC[C@]3(CCC(=O)[C@H]32)[C@@H](C)[C@@H]1O` here?
The solubility at 12 h was 648 µg/mL.
